From patent US20030229164A1, “Low foam N-alkyltartarimide and N-alkylmalimide wetting agents” (priority 2002, published 2003)

Columns and labels:
[1] = Equilibrium surface tension of aqueous solutions, Wilhelmy plate method; format: physicochemical; details: for lowering the equilibrium surface tension of water (in words): aqueous solutions, Table 1 data; for Limiting EST: saturated solutions containing <0.1 wt % in distilled water, filtered, Wilhelmy plate
Experimental: where R^1 is a C5 to C10 alkyl group. […] The Wilhelmy plate method of measuring surface tension is described in L. Wilhelmy's article in Ann. Phys. 1863, 119, 177, which is incorporated by reference.
Saturated solutions containing <0.1 wt % of the materials of Examples 1-4 in distilled water were prepared. After shaking the solutions for ˜24 hours, the undissolved material was removed via filtration. Equilibrium surface tension data were obtained using the Wilhelmy plate method.
The limiting surface tensions represent the lowest surface tensions in water which can be achieved for a given surfactant regardless of the amount of surfactant used and is used to evaluate the effectiveness of a surfactant. Lower surface tensions would allow the elimination of defects upon application of a formulation onto low energy surfaces.

[2] = Foaming properties of aqueous solutions, procedure based upon ASTM D 1173-53; format: physicochemical; details: for Initial Foam: foam height at completion of addition
Experimental: The foaming properties of aqueous solutions of N-2-ethylhexyl tartarimide (Ex 1), N-decyl tartarimide (Ex 2), N-2-ethylhexyl malimide (Ex 4) and two representative nonionic surfactants, a commercial nonylphenol 15 mole ethoxylate surfactant and a commercial C8 alkyl glucoside surfactant, were examined using a procedure based upon ASTM D 1173-53.
In this test, a 0.1 wt % aqueous mixtures of the tartramides and malimide were prepared, any undissolved solids were filtered off, and the filtrate was added from an elevated glass pipette to a glass receiver containing the same filtrate. Regarding the commercial materials, a 0.1 wt % solution of the surfactant was added from an elevated glass pipette to a glass receiver containing the same solution. The foam height was measured at the completion of the addition (“Initial Foam Height”) and the time required for the foam to dissipate at the air-liquid interface (“Time to 0 Foam”) was recorded. This test provides a comparison between the foaming characteristics of various surfactants. In general, in coatings, inks, adhesives and agricultural formulations, foam is undesirable because it complicates handling and can lead to coating and print defects, and to inefficient application of agricultural materials.

[3] = 0.1 wt % aqueous mixture (filtrate) or solution

| lowering the equilibrium surface tension of water (in words) [1] | Limiting EST [1] [dyne/cm] | Foam after 5 min [2, 3] [cm] | Initial Foam [2, 3] [cm] | Time to zero foam ([2]; 0.1 wt % aqueous mixture (filtrate) or solution, values given in min) [min] | Time to zero foam ([2]; 0.1 wt % aqueous mixture (filtrate), values printed in sec) [min] | SMILES |
| --- | --- | --- | --- | --- | --- | --- |
| particularly effective | 32.0 | 0 | 3.2 | 3.8 |  | CCCCCCCCCCN1C(=O)C(O)C(O)C1=O (racemic) [Example 2, N-Decyl DL-tartarimide] |
|  | 51.8 |  |  |  |  | CCCCCCN1C(=O)C(O)C(O)C1=O (racemic) [Example 3, N-hexyl DL-tartarimide] |
| particularly effective | 34.2 | 0 | 0 |  | 0 | CCCCC(CC)CN1C(=O)C(O)C(O)C1=O (centres unmarked) [Example 1, N-2-Ethylhexyl tartarimide] |
